Reference: PubChem BioAssay AID179 (DTP/NCI, 2004)
The source made the active and inactive calls.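 How the source made its calls: active means compounds giving half or more protection of infected cells from virus-caused growth loss, again on retest; inactive means the rest.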

Test system: CEM cells HIV-1 protection, formazan growth assay
Test: NCI AIDS Antiviral Assay
Conditions: for IC50: measured here: growth of uninfected CEM cells
How it was run: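 Human CEM cells, uninfected and HIV-1-infected, exposed to five drug concentrations; growth measured by soluble formazan assay and scored as percent protection from infection, with protecting compounds retested.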

| Structure (SMILES) | EC50 [µM] | IC50 [µM] | outcome |
| --- | --- | --- | --- |
| COC(=O)[C@]1(C)CCC[C@]2(C)c3cc(Br)c(C(C)C)cc3CC[C@H]12 | > 100 | > 100 | – |
| Cn1c(O)c(N=O)c(=O)[nH]c1=O | > 200 | > 200 | – |
| O=C1c2ccccc2-c2c3c(cc4ccnc1c24)OCO3 | – | – | inactive |
| CC(=O)NCCCCCCNC(C)=O | > 1260 | > 1260 | – |
| COc1ccc(C)cc1C1CCC(=O)O1 (stereo not given) | > 1200 | > 1200 | – |
| O=C(O)CCC(=O)Nc1ccc2c(c1)S(=O)(=O)N(CC(=O)O)C2=O | > 200 | > 200 | – |
| N#CCCN(c1ccc(/C=C2\N=C(Cc3ccccc3)OC2=O)cc1)S(=O)(=O)c1ccccc1 | 240 | 275 | – |
| Cc1cn(C2CC3OP(=O)(C(C)(C)C#N)OCC3O2)c(=O)[nH]c1=O (stereo not given) | > 708 | 447 | – |
| CCOCc1c(C)cc(C)c(C2C(C(=O)c3ccccc3)N3c4ccccc4C=CC3C2(C#N)C(=O)OCC)c1C (stereo not given) | > 200 | 33.9 | – |
| O=C(CCC(=O)Nc1cccc(Cl)c1)CC(=O)c1ccc(Cl)cc1 | – | – | inactive |
| Cc1cc(N(CCC#N)S(=O)(=O)c2ccccc2)ccc1C=O | > 110 | > 110 | – |
| C=C1C(=O)C23[C@H](O)C1CC[C@H]2[C@]12COC3(O)[C@@H](O)[C@@H]1C(C)(C)CC[C@@H]2O | > 347 | 1.95 | – |
| Cc1ccccc1NC(=O)CC1C(=O)Nc2ccccc2S1=O (stereo not given) | > 21.9 | > 21.9 | – |
| OCCN=C1c2ccccc2C2C(c3ccccc31)C1c3ccccc3C(=NCCO)c3ccccc3C21 (stereo not given) | > 200 | 24 | – |
| CC1(C)OC(=O)C(C#N)=C1/C=C\c1ccco1 | > 1100 | > 1100 | – |
| Cc1cc(N(CCC#N)CCC#N)ccc1/C=C1/CN(N2C(=O)/C(=C/c3ccc(N(CCC#N)CCC#N)cc3C)N=C2c2ccccc2)C(c2ccccc2)=N1 | > 5.01 | > 5.01 | – |
| Cc1ccc(S(=O)c2sccc2C=O)cc1 (stereo not given) | > 200 | 9.77 | – |
| Cc1ccc(S(=O)(=O)N/N=C/CN2C(=O)c3ccccc3C2=O)cc1 | 182 | 191 | – |
| COc1cc2c(c(OC)c1OC)C(=O)[C@@H](O)[C@H]2NC(N)=O | > 200 | > 200 | – |
| Cn1ncc(=O)[nH]c1=S | > 200 | > 200 | – |
| N#CC1(C#N)C(=O)c2ccncc2C1=O | > 200 | > 200 | – |

| Structure (SMILES) | EC50 [µM] | IC50 [µM] | outcome |
| --- | --- | --- | --- |
| CC(=O)OC1CC2C(C)(C)CCC[C@]2(C=O)C2=C1C(O)=C(C(C)C)C(=O)C2=O (stereo not given in full) | – | – | inactive |
| O=C(O)/C=C/c1ccccc1[N+](=O)[O-] | > 257 | > 257 | – |
| CCC1(N=[N+]=[N-])C(=O)c2ccccc2N(C)C1=O (stereo not given) | > 200 | > 200 | – |
| Cn1c(NC(=O)C(=O)NC23CC4CC(CC(C4)C2)C3)nc2ccccc21 | – | – | inactive |
| OC1CCCCCCCCCCC1SCCCCl (stereo not given) | > 200 | > 200 | – |
| c1ccc2c(c1)CC1c3[nH]c4ccccc4c3CCN21 (stereo not given) | > 200 | 55 | – |
| CC(=O)N=C1N(/C=C2\C(=O)Oc3ccccc3C2=O)C(=O)/C(=C/c2cccc(Cl)c2Cl)N1C | > 200 | 26.3 | – |
| COc1ccc(/C=C2\CN(C)CC3C2=NC(=S)NC3c2ccc(OC)cc2)cc1 (stereo not given) | > 200 | 6.61 | – |
| CCC1=CC2CN3CCc4c([nH]c5ccccc45)C(C(=O)OC)(C2)C13 (stereo not given) | – | – | inactive |
| CCc1ccc(Nc2cc(=O)n(C)c(SCc3ccccc3)n2)cc1 | > 200 | > 200 | – |
| N#Cc1sc2c(c1OC(=O)c1ccc(Cl)cc1Cl)c(=O)n(-c1ccccc1)c(=S)n2-c1ccccc1 | > 200 | 1.23 | – |
| COC(=O)NC1C(C)OC(OC2C/C=C(/C)C3C=CC4C(OC5CC(OC6CC(O)C(OC7CC(O)C(OC)C(C)O7)C(C)O6)C(O)C(C)O5)C(C)CC(C)C4C3(C)/C(O)=C3\C(=O)OC4(CC(C)C(CO)=CC4/C=C\2C)C3=O)CC1(C)[N+](=O)[O-] (stereo not given) | > 209 | 4.79 | – |
| Cc1cc(N(CCC#N)CCC#N)ccc1/C=C(\NC(=O)/C=C/c1ccccc1)C(=O)N=[N+]=[N-] | – | – | inactive |
| COc1ccc2c(c1OC)OCC(CN(C)C)C2=O (stereo not given) | – | – | inactive |
| O=C1c2ccccc2-c2cccc3ccc(Cc4ccc5ccccc5c4)c1c23 | > 5.13 | > 5.13 | – |
| COC(=O)[C@]1(C)CCC[C@]2(C)C3=CC(=O)[C@@]4(C(C)C)O[C@H]4[C@]3(O)CC[C@@H]12 | > 72.4 | > 72.4 | – |
| COc1ccc(C2CC(=O)c3ccccc3O2)cc1OC (stereo not given) | > 200 | 40.7 | – |
| CCOC(=O)/C(=C\c1ccc(Br)cc1)[Se]c1ccccc1 | > 63.1 | > 63.1 | – |
| c1ccc(CSCCC(SCc2ccccc2)SCc2ccccc2)cc1 | > 200 | > 200 | – |
| O=c1[nH]n(Cc2ccccc2Cl)c2ccccc12 | > 200 | > 200 | – |
| COc1ccc(C(=O)CC(c2ccccc2)[C@H]2C(c3ccc(OC)cc3)=Nc3c(nc(SC)n(C)c3=O)NC2c2ccccc2)cc1 (stereo not given in full) | > 200 | 19.1 | – |

| Structure (SMILES) | EC50 [µM] | IC50 [µM] | outcome |
| --- | --- | --- | --- |
| COC(=O)C1=C(C(=O)OC)C(OO)(c2ccccc2)OC1=O (stereo not given) | > 200 | > 200 | – |
| Cc1cccc(C)c1NC(=O)CCC(=O)NNc1nnc(C)n1N | > 398 | > 398 | – |
| Cc1ccc(S(=O)(=O)/C(C#N)=C/NC(=S)Nc2ccccc2)cc1 | 170 | > 200 | – |
| COc1nc(N=P(c2ccccc2)(c2ccccc2)c2ccccc2)cc(=O)[nH]1 | – | – | inactive |
| CC(CNC(=O)c1ccccc1)(CNC(=O)c1ccccc1)[N+](=O)[O-] | – | – | inactive |
| C=Cc1ccc(C)[n+](C[Si](C)(C)O[Si](C)(C)C)c1 | > 617 | 309 | – |
| NC(=O)N/N=C1/CCCCC1c1ccccc1 (stereo not given) | > 407 | > 407 | – |
| O=C1CC(=O)NC(=NNS(=O)(=O)c2ccccc2)N1 | > 200 | > 200 | – |
| O=C(CC(=O)c1cccc2ccccc12)C(=O)Nc1nccs1 | > 30.9 | > 30.9 | – |
| CN1CCN(Cc2nc3c(s2)CCc2sccc2-3)CC1 | > 200 | 57.5 | – |
| CC1(C)[C@@H]2C[C@H]1c1cnc(-c3ccccn3)cc1[C@H]2C(O)[C@@H]1c2cc(-c3ccccn3)ncc2[C@H]2C[C@@H]1C2(C)C (stereo not given in full) | > 5.01 | 0.295 | – |
| Cn1c(=O)nc2n(-c3cccc(F)c3)c3ccccc3nc-2c1=O | – | – | inactive |
| NNC(=O)CC(=O)Nc1cccc(Cl)c1 | > 200 | 120 | – |
| CC1(C)CC(=O)c2c(nc(SSc3nc4c(c(-c5ccccc5)c3C#N)C(=O)CC(C)(C)C4)c(C#N)c2-c2ccccc2)C1 | > 200 | 89.1 | – |
| CN(C(=O)c1cc2c(s1)sc1c(=O)n(C)c3ccccc3c12)c1ccccc1 | > 200 | 2.95 | – |
| C1CN1c1nc(N2CC2)nc(N2CC2)n1 | > 91.2 | 1.05 | – |
| Cc1nnc2n(c1=O)CCCN2C | > 200 | > 200 | – |
| CCOC(=O)Cc1csc(N/N=c2/sc(C=Nc3ccccc3)c(O)n2CC)n1 | > 200 | > 200 | – |
| COC1=CC23CCCN2CCc2cc4c(cc2C3C1O)OCO4 (stereo not given) | – | – | inactive |
| CCOC(=O)C(CC[C@@H]1N[C@H](C(N)=O)Cc2c1[nH]c1ccccc21)C(=O)OCC | > 89.1 | > 89.1 | – |
| NC(=O)c1nc(C2OC(CO)C(O)C2O)cs1 (stereo not given) | > 200 | > 200 | – |
